Results on 1 compound are retold here after US20230098111A1, “COMPOSITIONS AND METHODS TO TREAT NEUROLOGICAL DISEASES” (University of Southern California, priority 2020, published 2023).

The test system of one test is Optineurin (OPTN). Put plainly: Optineurin in CSF of mice after intracerebroventricular apilimod. The test is classed as in vivo. Particulars: intracerebroventricular injection into adult mice; mass spectrometry; apilimod vs vehicle. The protocol: (§1) (A) Mass spectrometry analysis of Optineurin (OPTN) levels in the cerebrospinal fluide (CSF) of mice 2 hours after direct intracerebroventral injection of a vehicle control or apilimod. n=3 mice per group. The ratio of Optineurin in the CSF of apilimod:vehicle-injected mice is shown. (B) Poly(GR)+ DPR punctae in wild-type or C9ORF72 mice treated with intracerebroventricular injection of apilimod for 48 hours. Mean+/−s.e.m. Data points are individual neurons taken across 3 mice per group. One-way ANOVA. […] Unpaired t-test. (D) Pikfyve qRT-PCR of whole brain. n=3 mice per group at postnatal day 7. Unpaired t-test. (E) Gait impairment scoring in wild-type (WT) and TDP-43 homozygous mice treated with a negative control (NC) ASO or Pikfyve ASO at postnatal day 1. Mean+/−s.e.m. Unpaired t-test at each time point between the negative control and Pikfyve ASO conditions for TDP-43 mice. A score of 0 indicates no phenotype and 4 indicates the most severe phenotype. (F) Vehicle or GW4869 were delivered by intraperitoneal injection every 48 h starting from day 6 in negative control and Pikfyve ASO-treated mice. Mean+/−s.e.m. One-way ANOVA at each time point between the four conditions. *p<0.05, **p<0.01, ***p<0.001, ****p<0.0001.
PIKFYVE inhibition rescues neurodegeneration in vivo. […]

Test [1] concerns C9ORF72 dipeptide repeat proteins. Kind of test: DPR levels in C9ORF72-BAC mice. Type of test: in vivo. The protocol:
DRP aggregates (Poly(GR) red) accumulate in the cells (white outline) of C9-BAC mice.
as §1
PIKFYVE inhibition rescues neurodegeneration in vivo. […] Since TARDBP overexpressing mice show motor deficits and neurodegeneration, we used TARDBP mice to test the efficacy of Pikfyve suppression.
Determining whether PIKfyve-targeting ASOs can reverse ALS disease progression in vivo. To determine if PIKfyve-targeting ASOs can reverse ALS disease processes in vivo, can PIKfyve ASOs lower levels of C9ORF72 dipeptide repeat proteins in mice. Dipeptide repeat proteins are generated from the C9ORF72 repeat expansion by repeat-associated non-AUG-dependent translation and are neurotoxic.
To determine if ASO-mediated Pikfyve suppression lowers C9ORF72 poly(GR) levels in mice, Pikfyve ASOs were injected into the hippocampus of adult C9ORF72-BAC mice, which harbor a C9ORF72 repeat expanded transgene and accumulate poly(GR)+ aggregates in hippocampal neurons.

Another test deals with TDP-43 G298S iMNs. Put plainly: Survival of TARDBP ALS iMNs. Type of test: cell-based, human. Particulars: neurotrophic factor withdrawal; DMSO or 3 uM apilimod. The method, then:
(A) Survival of control or SOD1 A4V iMNs with DMSO or 3 uM apilimod. (B) Survival of TDP-43 G298S iMNs with DMSO or 3 uM apilimod. (C) Survival of MAPT V337M or isogenic control iNs.
PIKFYVE inhibition rescues the survival of TARDBP ALS, SOD1 ALS, and MAPT FTD patient neurons. Since the accumulation of misfolded proteins is a common disease mechanism in all forms of ALS, FTD, and Alzheimer's disease, it was reasoned that inducing secretory autophagy might rescue neurodegeneration in diverse patients. iMNs were generated from ALS patients harboring mutations in TARDBP or SOD1 as well as NGN2-induced neurons (iNs) from MAPT^V337M FTD. […] 2 additional isogenic pairs of iPSC lines from MAPT FTD patients, 2 additional TARDBP ALS iPSC lines, and 2 additional SOD1 ALS iPSC lines were all obtained.

A further test concerns C9-FTD iNs. Kind of test: Exosome secretion from iNs. The test is classed as cell-based, human. An excerpt: (A) […] of exosomes from apilimod-treated C9-FTD iNs. (B) Western blot of TSG101, TDP-43, and Neurofilament heavy chain levels in the exosome fraction secreted from control or C9-FTD iNs upon apilimod treatment. (C,D) Quantification of the exosome marker TSG101 (C) or TDP-43 (D) in the exosome fraction of control and C9-FTD iNs treated with DMSO, apilimod, or apilimod+GW4869. Kruskal-Wallis test for B, C. N=3 biological replicates per condition, one line per genotype. (E) Number of poly(GR)-GFP+ exosomes secreted from iNs expressing exogenous poly(GR)-GFP upon DMSO or apilimod treatment. N=4 biological replicates. Exosomes were labeled with CFSE-red dye to enable detection by FACS. Unpaired t-test.
To test this, exosome release from iNs upon PIKFYVE inhibition was examined. […] Thus, PIKFYVE inhibition induces the secretion of TDP-43 and C9ORF72 DPRs from iNs
PIKFYVE inhibition rescues neurodegeneration through secretory autophagy.

Another test has as its system C9-ALS/FTD iMNs. Put plainly: Exosome secretion from iMNs. The test is classed as cell-based, human. An excerpt: (A) Western blot of TSG101, TDP-43, and Neurofilament heavy chain levels in the exosome fraction secreted from control or C9-ALS/FTD iMNs upon apilimod treatment. […] Kruskal-Wallis test for B, C. N=3 biological replicates per condition, one line per genotype. (D) Number of poly(GR)-GFP+ exosomes secreted from iMNs expressing exogenous poly(GR)-GFP upon DMSO or apilimod treatment. N=4 biological replicates. Exosomes were labeled with CFSE-red dye to enable detection by FACS. Unpaired t-test.
Blocking PIKFYVE activity induces secretory autophagy. […] Thus, secretory autophagy maintains proteostasis and prevents neuronal death in TDP-43 mouse models. PIKFYVE inhibition blocks autophagosome-lysosome fusion by […] their ratio in endosomal, lysosomal and autophagosomal membranes. One might expect this to be detrimental to ALS iMNs, which can degenerate due to misfolded protein accumulation. However, inhibition of autophagosome-lysosome fusion using PIKFYVE inhibition or bafilomycin can activate secretory autophagy to jettison misfolded proteins from cells. […] To test this hypothesis, exosomal release in human iMNs upon PIKFYVE inhibition was examined. […] Thus, PIKFYVE inhibition induces the secretion of TDP-43 and C9ORF72 DPRs from iMNs.
Determining if PIKFYVE suppression rescues neurodegeneration through secretory autophagy. […] ASOs were designed targeting […]. It was confirmed that the ASOs suppressed RAB27A expression in iMNs.

Where [2] appears, read: injection of apilimod into the hippocampus.
Setting [3] is: western blot of exosome fraction.

Molecules are shown by their SMILES.

In the case of `Cc1cccc(/C=N/Nc2cc(N3CCOCC3)nc(OCCc3ccccn3)n2)c1` [apilimod], the “increase in CSF OPTN levels” value in the test on Optineurin (OPTN) is 18 fold. In test [1] (setting [2]), the “levels of poly(GR) in C9ORF72-BAC mice” value is on record as “reduced levels” and the “levels of poly(PR) in C9ORF72-BAC mice” value is on record as “reduced levels”. Besides, the “DPR levels in C9ORF72-BAC mice” value in test [1] (intracerebroventricular injection of apilimod) is reported as “lowered DPR levels”. Moreover, the “survival of TARDBP ALS iMNs” value in the test on TDP-43 G298S iMNs was “rescued the survival”. Further, in the test with C9-FTD iNs (electron microscopy and western blotting), the “release of TSG101+ exosomes from iNs” value is listed as “increased release of TSG101+ exosomes”. Further, in the test on C9-FTD iNs (iNs expressing poly(GR)50-GFP, FACS of CFSE-labelled exosomes), the “poly(GR)-GFP+ exosomes released from iNs” value is listed as “released significantly more poly(GR)-GFP+ exosomes”. Also, in the test on C9-FTD iNs (setting [3]), the “TDP-43 in exosomes from C9ORF72 FTD iNs” value was “contained high levels of TDP-43”. Further, in the test with C9-ALS/FTD iMNs (iMNs expressing poly(GR)50-GFP, FACS), the “poly(GR)-GFP+ exosomes released from iMNs” value is on record as “released significantly more poly(GR)-GFP+ exosomes”. The “TDP-43 in exosomes from C9ORF72 ALS iMNs” value in the test on C9-ALS/FTD iMNs (setting [3]) is “contained high levels of TDP-43”. Besides, the “release of TSG101+ exosomes from iMNs” value with C9-ALS/FTD iMNs (western blotting) is listed as “significantly increased the release of TSG101+ exosomes”.
